Assay results published in patent US20260365618A1 (priority 2022, published 2026).
Converted amounts (≈) assume the structure as drawn.

Tested on: F. tularensis subsp. holarctica
Assay: microbe, parasite or virus in culture
Assay type: cell-based, Francisella tularensis subsp. holarctica
Conditions: Francisella tularensis, 48 h

| Compound | MIC50 [µg/mL] | MIC (read-out: MIC Range) [µg/mL] |
| --- | --- | --- |
| CC[C@H]1OC(=O)[C@H](C)[C@@H](O[C@H]2C[C@@](C)(OC)[C@@H](O)[C@H](C)O2)[C@H](C)[C@@H](O[C@@H]2O[C@H](C)C[C@H](N(C)C)[C@H]2O)[C@](C)(O)C[C@@H](C)C(=O)[C@H](C)[C@@H](O)[C@]1(C)O [Erythromycin] | 8 (≈ 10.9 µM) | – |
| C=C[C@]1(C)C[C@@H](OC(=O)CS[C@@H]2CC[C@@H](N)C[C@H]2O)[C@]2(C)[C@H](C)CC[C@]3(CCC(=O)[C@H]32)[C@@H](C)[C@@H]1O [Lefamulin, 14-O-{[(1R, 2R, 4R)-4-amino-2-hydroxy-cyclohexylsulfanyl]-acetyl}-mutilin] | 4 (≈ 7.88 µM) | 0.5 to 8 (≈ 0.985 to 15.8 µM) |
